Data: paper PMC11073612 (Nature structural & molecular biology, 2022)
“Also recorded” adds a separate entry of the source. Where no end group is shown, it is not given here.

What was measured:
[1] = system: SSTR2; assay: BRET-based G protein activation assay at SSTR2; format: cell-based; settings: HEK-293S, 10 min after ligand, n=3 biological replicates
[2] = system: SSTR3 H192A; assay: BRET-based Gi3 activation assay, SSTR3 H192A; format: cell-based; settings: HEK-293S
[3] = system: SSTR2 R184 to alanine mutant; assay: BRET-based Gi3 activation assay, SSTR2 ECL2 mutant R184 to alanine; format: cell-based; settings: HEK-293S
[4] = system: SSTR3 H192T; assay: BRET-based Gi3 activation assay, SSTR3 H192T; format: cell-based; settings: HEK-293S
[5] = system: SSTR2 ECL2 mutants; assay: BRET assays comparing SST14 and SST28 at ECL2 mutants; format: cell-based; settings: HEK-293S; for behavior of SST14 versus SST28 across ECL2 mutants: all of the mutants tested
[6] = system: SSTR2 ECL2+/4 (entire ECL2 from SSTR4); assay: BRET-based Gi3 activation assay, SSTR2 ECL2+/4 chimera; format: cell-based; settings: ECL2+/4 vs ECL2/4, HEK-293S, n=3
[7] = system: SSTR2 R184 to proline mutant; assay: BRET-based Gi3 activation assay, SSTR2 ECL2 mutant R184 to proline; format: cell-based; settings: HEK-293S
[8] = system: SSTR3; assay: BRET-based Gi3 activation assay at SSTR3; format: cell-based; settings: HEK-293S, 10 min after ligand, n=3 biological replicates
[9] = system: SSTR4; assay: BRET-based Gi3 activation assay at SSTR4; format: cell-based; settings: HEK-293S, 10 min after ligand, n=3 biological replicates
[10] = system: chimeric constructs of SSTR2 (ECL swaps); assay: BRET-based Gi3 activation assay, SSTR2 ECL2/ECL3 chimeras; format: cell-based; settings: HEK-293S, n=3; for ligand recognition, effect of ECL swaps: nearly all ECL2/ECL3 swaps
[11] = system: SSTR5; assay: BRET-based Gi3 activation assay at SSTR5; format: cell-based; settings: HEK-293S, 10 min after ligand, n=3 biological replicates
[12] = system: SSTR1; assay: BRET-based Gi3 activation assay at SSTR1; format: cell-based; settings: HEK-293S, 10 min after ligand, n=3 biological replicates
[13] = system: SSTR2 Q102^2.63S; assay: BRET-based Gi3 activation assay, SSTR2 Q102S; format: cell-based; settings: HEK-293S
[14] = system: SSTR2 N276^6.55Q; assay: BRET-based Gi3 activation assay, SSTR2 N276Q; format: cell-based; settings: HEK-293S
[15] = system: SSTR2 Q187M; assay: BRET-based Gi3 activation assay, SSTR2 Q187M; format: cell-based; settings: HEK-293S, n=3 biological replicates
[16] = system: SSTR1–5; settings: cited from earlier work

Substance	Gi3 BRET activation response [1]	SST14-stimulated G protein activation (effect of mutation) [2]	SSTR2 activation (effect of mutation) [3]	SST14-stimulated G protein activation (effect of mutation) [4]	behavior of SST14 versus SST28 across ECL2 mutants [5]	SST14-induced signaling compared to the shorter SSTR4 ECL2 swap [6]	SSTR2 activation (effect of mutation) [7]	Gi3 BRET activation response [8]	Gi3 BRET activation response [9]	impairment by ECL swaps, SST14 versus octreotide ([10]; ECL swaps)	ligand recognition, effect of ECL swaps [10]	Gi3 BRET activation response [11]	Gi3 BRET activation response [12]	strength of SST28 relative to SST14 ([5]; across all of the ECL2 mutants tested)	octreotide-induced G protein signaling (effect of mutation) [13]	octreotide signaling (effect of mutation) [14]	octreotide signaling (effect of mutation) [15]	subtype selectivity [16]
SST14: endogenous 14-residue somatostatin peptide (Cayman, 20809)	comparable response	deleterious to SST14-stimulated G protein activation	substantially reduces SSTR2 activation	deleterious to SST14-stimulated G protein activation	remarkably similar	improved SST14-induced signaling	substantially reduces SSTR2 activation	comparable response	comparable response	far greater impairment for SST14 than octreotide	impaired ligand recognition of SST14 and octreotide to some degree; also recorded: non-linear effect on SST14-induced signaling	comparable response	comparable response	–	–	–	–	–
SST28: 28-residue somatostatin peptide (SANSNPAMAPRERKAGCKNFFWKTFTSC; ends and bridges not checked; cysteine pairing not given here)	–	–	–	–	remarkably similar	–	–	–	–	–	–	–	–	slightly weaker binder than SST14 (less than an order of magnitude)	–	–	–	–
octreotide	activates SSTR2 most potently	–	substantially reduces SSTR2 activation	–	–	–	substantially reduces SSTR2 activation	reduced response	almost no activity	–	impaired ligand recognition of SST14 and octreotide to some degree	reduced response	almost no activity	–	selectively reduces octreotide-induced G protein signaling	decreases octreotide signaling in a selective manner	enhances octreotide signaling	–
lanreotide	–	–	–	–	–	–	–	–	–	–	–	–	–	–	–	–	–	SSTR2-selective
